Test results: publication PMC3265452 (PLoS Neglected Tropical Diseases, 2012)
Structures can show the parent of a compound that is named as a salt.

molecular target: AaDOP2 (Aedes aegypti, UniProt H6D5H2); assay: AaDOP2 antagonist screen of the LOPAC1280 library (HEK-CRELuc-Aadop2 cells, luminescence); assay type: cell-based; conditions: not given
Sequence (H6D5H2 1-476): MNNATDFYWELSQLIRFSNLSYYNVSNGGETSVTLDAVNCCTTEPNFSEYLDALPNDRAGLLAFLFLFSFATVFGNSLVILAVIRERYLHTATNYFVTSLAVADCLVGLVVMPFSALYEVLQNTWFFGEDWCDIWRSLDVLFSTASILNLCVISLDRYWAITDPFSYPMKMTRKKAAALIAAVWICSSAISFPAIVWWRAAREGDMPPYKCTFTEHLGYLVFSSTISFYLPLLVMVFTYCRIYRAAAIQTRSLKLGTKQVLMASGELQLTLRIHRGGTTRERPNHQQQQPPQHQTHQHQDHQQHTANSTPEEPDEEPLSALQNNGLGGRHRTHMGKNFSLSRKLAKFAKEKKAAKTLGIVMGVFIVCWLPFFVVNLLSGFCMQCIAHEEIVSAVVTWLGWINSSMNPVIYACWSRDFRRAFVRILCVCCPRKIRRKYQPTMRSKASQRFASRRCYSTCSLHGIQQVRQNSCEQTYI

| SMILES | Compound effect (percent receptor signaling in presence of test compound, relative lux units relative to the SCH23390 control) |
| --- | --- |
| CN1CCC(c2c[nH]c3ccc(O)cc23)CC1.O=C(O)/C=C\C(=O)O [Compound 213, BRL 54443 maleate] | 80 |
| CC(N)Cc1c[nH]c2ccc(OCc3cccs3)cc12 (centres unmarked) [Compound 214, BW 723C86] | 92 |
| O=C(O)CCCc1ccc(N(CCCl)CCCl)cc1 [Compound 215, Chlorambucil] | 106 |
| C[N+](C)(C)CCOP(=O)([O-])OP(=O)([O-])OC[C@H]1O[C@@H](n2ccc(N)nc2=O)[C@H](O)[C@@H]1O.[Na+] [Compound 216, Citicoline sodium] | 91 |
| CC(C)(Oc1ccc(C2CC2(Cl)Cl)cc1)C(=O)O (centres unmarked) [Compound 217, Ciprofibrate] | 97 |
| O=NN(CCCl)C(=O)NCCCl [Compound 219, Carmustine] | 82 |
| CCC(C)N(C)C(=O)c1cc2ccccc2c(-c2ccccc2Cl)n1 (centres unmarked) [Compound 220, PK 11195] | 84 |
| O=C(O)/C=C/c1ccc(O)c(O)c1 [Compound 221, Caffeic Acid] | 114 |
| O=C1CCc2cc(OCCCCc3nnnn3C3CCCCC3)ccc2N1 [Compound 222, Cilostazol] | 108 |
| O=P1(N(CCCl)CCCl)NCCCO1 (centres unmarked) [Compound 224, Cyclophosphamide monohydrate] | 83 |
| CC(C)(CO)Cc1cc(C(C)(C)C)c(O)c(C(C)(C)C)c1 [Compound 225, CGP-7930] | 89 |
| CC(C)(C=O)Cc1cc(C(C)(C)C)c(O)c(C(C)(C)C)c1 [Compound 226, CGP-13501] | 98 |
| CCCCCCC(C)(C)c1ccc([C@@H]2C[C@H](O)CC[C@H]2CCCO)c(O)c1 [Compound 227, CP55940] | 85 |
| N[C@H]1CON=C1O [Compound 228, L-Cycloserine] | 88 |
| O=S(=O)(c1cccc2c(Cl)cccc12)N1CCCNCC1 [Compound 229, ML-9] | 102 |
| CCCNC(=O)NS(=O)(=O)c1ccc(Cl)cc1 [Compound 231, Chlorpropamide] | 98 |
| COc1ccc2c(c1)c(CC(=O)O)c(C)n2Cc1ccc(Cl)cc1 [Compound 232, 1-(4-Chlorobenzyl)-5-methoxy-2-methylindole-3-acetic acid] | 77 |
| C[N+](C)(C)CCO.[Br-] [Compound 234, Choline bromide] | 89 |
| NC(=O)c1cc(N2CC2)c([N+](=O)[O-])cc1[N+](=O)[O-] [Compound 236, CB 1954] | 81 |
| C[C@]12C[C@H](O)[C@H]3[C@@H](CCC4=CC(=O)CC[C@@]43C)[C@@H]1CC[C@@H]2C(=O)CO [Compound 238, Corticosterone] | 87 |
| N.N.O=C([O-])C1(C(=O)[O-])CCC1.[Pt+2] [Compound 239, Carboplatin] | 83 |
| COc1ccc2c(c[n+](C)c3c4cc5c(cc4ccc23)OCO5)c1OC [Compound 241, Chelerythrine chloride] | 112 |
| Clc1ccc(C(c2ccccc2Cl)C(Cl)Cl)cc1 (centres unmarked) [Compound 242, 1-(2-Chlorophenyl)-1-(4-chlorophenyl)-2,2-dichloroethane] | 108 |
| CC(=O)OCC(=O)[C@@]1(O)CC[C@H]2[C@@H]3CCC4=CC(=O)CC[C@]4(C)[C@H]3C(=O)C[C@@]21C [Compound 244, Cortisone 21-acetate] | 110 |
| CCn1cnc2c(Nc3cccc(Cl)c3)nc(N[C@@H]3CCCC[C@@H]3N)nc21.Cl [Compound 246, CGP-74514A hydrochloride] | 99 |

| SMILES | Compound effect (percent receptor signaling in presence of test compound, relative lux units relative to the SCH23390 control) |
| --- | --- |
| CC(=O)O[C@]1(C(C)=O)CC[C@H]2[C@@H]3C=C(Cl)C4=CC(=O)[C@@H]5C[C@@H]5[C@]4(C)[C@H]3CC[C@@]21C [Compound 247, Cyproterone acetate] | 115 |
| N[C@@H]1CON=C1O [Compound 250, D-Cycloserine] | 91 |
| Clc1ccc(C(c2ccc(Cl)cc2)n2cc[n+](CC(OCc3ccc(Cl)cc3Cl)c3ccc(Cl)cc3Cl)c2)cc1 (centres unmarked) [Compound 252, Calmidazolium chloride] | 44 |
| Cn1cc(C(=O)OCC2CCN(CCNS(C)(=O)=O)CC2)c2ccccc21 [Compound 253, GR 113808] | 97 |
| NC(=O)N1c2ccccc2C=Cc2ccccc21 [Compound 254, Carbamazepine] | 75 |
| C[C@H](CS)C(=O)N1CCC[C@H]1C(=O)O [Compound 255, Captopril] | 112 |
| CCc1cccc(N(C)C(N)=Nc2cccc3ccccc23)c1 [Compound 256, CNS-1102] | 107 |
| C[N+](C)(C)CCOC(N)=O [Compound 257, Carbachol] | 99 |
| N[C@@H](CS(=O)O)C(=O)O [Compound 259, L-Cysteinesulfinic Acid] | 116 |
| Nc1ncnc2c1ncn2C1CCCC1 [Compound 260, 9-cyclopentyladenine] | 116 |
| CC(=O)OCC1=C(C(=O)O)N2C(=O)[C@@H](NC(=O)Cc3cccs3)[C@H]2SC1 [Compound 261, Cephalothin sodium] | 92 |
| CN/C(=N/CCSCc1nc[nH]c1C)NC#N [Compound 262, Cimetidine] | 88 |
| CN(C)CCC=C1c2ccccc2C=Cc2ccccc21 [Compound 263, Cyclobenzaprine hydrochloride] | 106 |
| CCN(CC)CCOCCOC(=O)C1(c2ccccc2)CCCC1 [Compound 264, Carbetapentane citrate] | 93 |
| CN(C)CC[C@@H](c1ccc(Cl)cc1)c1ccccn1 [Compound 267, (+)-Chlorpheniramine maleate] | 106 |
| Cc1nnc(SCC2=C(C(=O)O)N3C(=O)[C@@H](NC(=O)Cn4cnnn4)[C@H]3SC2)s1 [Compound 268, Cefazolin sodium] | 96 |
| Cl.Clc1ccc(Cn2c(CN3CCCC3)nc3ccccc32)cc1 [Compound 269, Clemizole hydrochloride] | 96 |
| Nc1nc(Cl)nc2c1ncn2[C@@H]1O[C@H](CO)[C@@H](O)[C@H]1O [Compound 270, 2-Chloroadenosine] | 118 |
| CC(C[N+](C)(C)C)OC(N)=O (centres unmarked) [Compound 271, Bethanechol chloride] | 116 |
| Cl.Cl.Clc1cccc(N2CCNCC2)c1 [Compound 273, 1-(3-Chlorophenyl)piperazine dihydrochloride] | 99 |
| Cc1cc(NC(=O)Nc2ccc3c(ccn3C)c2)sn1 [Compound 274, SB 204741] | 95 |
| CO/N=C(\C(=O)N[C@@H]1C(=O)N2C(C(=O)O)=C(CSc3nc(=O)c(=O)[nH]n3C)CS[C@H]12)c1csc(N)n1 [Compound 275, Ceftriaxone sodium] | 97 |
| O=C(O)c1cc[c]([Hg][Cl])cc1 [Compound 276, 4-Chloromercuribenzoic acid] | 96 |
| CN1C(=O)CC[C@H]1c1cccnc1 [Compound 277, (-)-Cotinine] | 96 |

same assay, conditions: 10 µM compound, 300 nM dopamine, 2 hr; hit = compound effect <20

| SMILES | Compound effect (percent receptor signaling in presence of test compound, relative lux units relative to the SCH23390 control) |
| --- | --- |
| COc1cc2c(CCNC(C)=O)c[nH]c2cc1Cl [Compound 218, 6-Chloromelatonin] | 90% |
| Cl.Cl.NCCC(=O)NCCc1cnc[nH]1 [Compound 237, Carcinine dihydrochloride] | 95% |
| C[C@]12CCC(=O)C=C1CC[C@@H]1[C@@H]2C(=O)C[C@@]2(C)[C@H]1CC[C@]2(O)C(=O)CO [Compound 240, Cortisone] | 86% |
| CC1=C(C(=O)O)N2C(=O)[C@@H](NC(=O)[C@H](N)c3ccccc3)[C@H]2SC1.O [Compound 265, Cephalexin hydrate] | 87% |
